Test results as given in PMC6684654 (Nature Communications, 2019).
In brackets after ≈: the same amount, converted by molar mass. Where two headings read alike, the source gives them in different places.

Legend:
[1] = tested on: NDM-1 K. pneumoniae XJ155020; assay: MIC, broth microdilution; type: cell-based; conditions: Klebsiella pneumoniae, 16 h
From the text: (§1) MIC values were identified through microdilution in sterilized 96-well polypropylene microtiter plates according to the broth microdilution guideline of the Clinical and Laboratory Standards Institute[30]. The test medium was Mueller–Hinton broth (MHB), and the strain concentrations were adjusted to 5 × 10^5 CFU/mL.

[2] = tested on: NDM-1 K. pneumoniae XJ155018; assay: MIC, broth microdilution; type: cell-based; conditions: Klebsiella pneumoniae, 16 h
From the text: as §1

E. coli ATCC25922 [3] = assay: MIC, broth microdilution; type: cell-based; conditions: Escherichia coli
From the text: as §1

NDM-1 E. coli XJ141026 [4] = assay: MIC, broth microdilution; type: cell-based; conditions: Escherichia coli, 16 h
From the text: as §1

E. coli ATCC35218 = assay: MIC, broth microdilution; type: cell-based; conditions: Escherichia coli
From the text: as §1

NDM-1 E. coli XJ141015 [5] = assay: MIC, broth microdilution; type: cell-based; conditions: Escherichia coli, 16 h
From the text: as §1

[6] = tested on: NDM-1 K. pneumoniae XJ155019; assay: MIC, broth microdilution; type: cell-based; conditions: Klebsiella pneumoniae, 16 h
From the text: as §1

NDM-1 E. coli XJ141047 [7] = assay: MIC, broth microdilution; type: cell-based; conditions: Escherichia coli, 16 h
From the text: as §1

[8] = tested on: NDM-1 K. pneumoniae XJ155017; assay: MIC, broth microdilution; type: cell-based; conditions: Klebsiella pneumoniae, 16 h
From the text: as §1

K. pneumoniae ATCC13883 [9] = assay: MIC, broth microdilution; type: cell-based; conditions: Klebsiella pneumoniae
From the text: as §1

[10] = tested on: NDM-1 K. pneumoniae XJ155020; assay: Antibiotic susceptibility (MIC), automated identification system; type: cell-based; conditions: Supplementary Table 2; for MIC: Klebsiella pneumoniae
From the text: (§2) Clinical isolate strains were identified and screened by the Phoenix 100 automated bacterial identification system to rapidly detect antimicrobial resistance. Total DNA was extracted by the TIANamp Bacteria DNA Kit according to the manufacturer’s protocol. The presence of blaNDM-1 was confirmed using a diagnostic kit for NDM-1 (Puruikang Bio Inc., Shenzhen, China) based on fluorescent quantitative polymerase chain reaction assay. According to the instruction, Ct values of less than 37 were considered positive.

[11] = tested on: NDM-1 K. pneumoniae XJ155018; assay: as above; type: cell-based; conditions: Supplementary Table 2; for MIC: Klebsiella pneumoniae
From the text: as §2

E. coli ATCC25922 [12] = assay: as above; type: cell-based; conditions: Supplementary Table 1; for MIC: Escherichia coli, ATCC25922
From the text: as §2

NDM-1 E. coli XJ141026 [13] = assay: as above; type: cell-based; conditions: Supplementary Table 1; for MIC: Escherichia coli
From the text: as §2

NDM-1 E. coli XJ141015 [14] = assay: as above; type: cell-based; conditions: Supplementary Table 1; for MIC: Escherichia coli
From the text: as §2

[15] = tested on: NDM-1 K. pneumoniae XJ155019; assay: as above; type: cell-based; conditions: Supplementary Table 2; for MIC: Klebsiella pneumoniae
From the text: as §2

NDM-1 E. coli XJ141047 [16] = assay: as above; type: cell-based; conditions: Supplementary Table 1; for MIC: Escherichia coli
From the text: as §2

[17] = tested on: NDM-1 K. pneumoniae XJ155017; assay: as above; type: cell-based; conditions: Supplementary Table 2; for MIC: Klebsiella pneumoniae
From the text: as §2

K. pneumoniae ATCC13883 [18] = assay: as above; type: cell-based; conditions: Supplementary Table 2; for MIC: Klebsiella pneumoniae, ATCC13883
From the text: as §2

NDM-1 = NDM-1 (Klebsiella pneumoniae, UniProt C7C422); assay: Zn2+ restoration assay; type: biochemical
Experimental: After incubating for 20 min at 30 °C, 50 μL of the mixture was added to the 96-well plate. […] The absorbance at 300 nm was monitored for 30 min at 30 °C. Percent residual activity was calculated from the thanatin-free control.

[19] = MHB, 5 × 10^5 CFU/mL, 37 °C, read-out: MIC
[20] = ATCC25922, MHB, 5 × 10^5 CFU/mL, 16 h, 37 °C, read-out: MIC
[21] = ATCC35218, MHB, 5 × 10^5 CFU/mL, 16 h, 37 °C, read-out: MIC
[22] = ATCC13883, MHB, 5 × 10^5 CFU/mL, 16 h, 37 °C, read-out: MIC

Sequence of NDM-1 (C7C422 20-270, looked up, natural form): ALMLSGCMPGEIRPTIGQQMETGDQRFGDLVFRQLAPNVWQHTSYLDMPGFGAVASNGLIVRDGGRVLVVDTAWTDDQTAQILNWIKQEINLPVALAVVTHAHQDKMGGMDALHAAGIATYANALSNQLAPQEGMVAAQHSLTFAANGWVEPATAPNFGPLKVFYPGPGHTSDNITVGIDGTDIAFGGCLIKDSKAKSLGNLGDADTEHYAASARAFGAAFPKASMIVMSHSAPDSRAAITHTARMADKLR

Cc1onc(-c2ccccc2)c1C(=O)N[C@@H]1C(=O)N2[C@@H]1SC(C)(C)[C@@H]2C(=O)O [Oxacillin]
MIC [1, 19]: > 256 µg/mL | MIC [2, 19]: > 256 µg/mL | MIC (E. coli ATCC25922 [3]; [20]): 64 µg/mL (≈ 159 µM) | MIC (NDM-1 E. coli XJ141026 [4]; [19]): > 256 µg/mL | MIC (E. coli ATCC35218; [21]): 256 µg/mL (≈ 638 µM) | MIC (NDM-1 E. coli XJ141015 [5]; [19]): > 256 µg/mL | MIC [6, 19]: > 256 µg/mL | MIC (NDM-1 E. coli XJ141047 [7]; [19]): > 256 µg/mL | MIC [8, 19]: > 256 µg/mL | MIC (K. pneumoniae ATCC13883 [9]; [22]): 64 µg/mL (≈ 159 µM)

CO/N=C(\C(=O)N[C@@H]1C(=O)N2C(C(=O)O)=C(COC(C)=O)CS[C@H]12)c1csc(N)n1 [Cefotaxime]
MIC [10]: > 32 µg/mL | susceptibility class (MIC) [10]: R | MIC [11]: > 32 µg/mL | susceptibility class (MIC) [11]: R | MIC (E. coli ATCC25922 [12]): ≤ 1 µg/mL | susceptibility class (MIC) (E. coli ATCC25922 [12]): S | MIC (NDM-1 E. coli XJ141026 [13]): > 32 µg/mL | susceptibility class (MIC) (NDM-1 E. coli XJ141026 [13]): R | MIC (NDM-1 E. coli XJ141015 [14]): > 32 µg/mL | susceptibility class (MIC) (NDM-1 E. coli XJ141015 [14]): R | MIC [15]: > 32 µg/mL | susceptibility class (MIC) [15]: R | MIC (NDM-1 E. coli XJ141047 [16]): > 32 µg/mL | susceptibility class (MIC) (NDM-1 E. coli XJ141047 [16]): R | MIC [17]: > 32 µg/mL | susceptibility class (MIC) [17]: R | MIC (K. pneumoniae ATCC13883 [18]): ≤ 1 µg/mL | susceptibility class (MIC) (K. pneumoniae ATCC13883 [18]): S | MIC [1]: > 256 µg/mL | MIC [2]: > 256 µg/mL | MIC (E. coli ATCC25922 [3]; ATCC25922, 16 h): < 0.125 µg/mL | MIC (NDM-1 E. coli XJ141026 [4]): > 256 µg/mL | MIC (E. coli ATCC35218; ATCC35218, 16 h): < 0.125 µg/mL | MIC (NDM-1 E. coli XJ141015 [5]): > 256 µg/mL | MIC [6]: > 256 µg/mL | MIC (NDM-1 E. coli XJ141047 [7]): > 256 µg/mL | MIC [8]: > 256 µg/mL | MIC (K. pneumoniae ATCC13883 [9]; ATCC13883, 16 h): < 0.125 µg/mL

O=S(=O)([O-])[O-].[Zn+2] [ZnSO4]
NDM-1 residual activity % (NDM-1; ZnSO4 0.1 μM, replicate 1): 15.22% | NDM-1 residual activity % (NDM-1; ZnSO4 0.1 μM, replicate 2): 16.97% | NDM-1 residual activity % (NDM-1; ZnSO4 0.1 μM, replicate 3): 15.04% | NDM-1 residual activity % (NDM-1; ZnSO4 1 μM, replicate 1): 27.47% | NDM-1 residual activity % (NDM-1; ZnSO4 1 μM, replicate 2): 23.22% | NDM-1 residual activity % (NDM-1; ZnSO4 1 μM, replicate 3): 15.46% | NDM-1 residual activity % (NDM-1; ZnSO4 5 μM, replicate 1): 28.32% | NDM-1 residual activity % (NDM-1; ZnSO4 5 μM, replicate 2): 25.17% | NDM-1 residual activity % (NDM-1; ZnSO4 5 μM, replicate 3): 26.96% | NDM-1 residual activity % (NDM-1; ZnSO4 10 μM, replicate 1): 32.34% | NDM-1 residual activity % (NDM-1; ZnSO4 10 μM, replicate 2): 29.63% | NDM-1 residual activity % (NDM-1; ZnSO4 10 μM, replicate 3): 36.06% | NDM-1 residual activity % (NDM-1; ZnSO4 50 μM, replicate 1): 43.28% | NDM-1 residual activity % (NDM-1; ZnSO4 50 μM, replicate 2): 51.47% | NDM-1 residual activity % (NDM-1; ZnSO4 50 μM, replicate 3): 61.34% | NDM-1 residual activity % (NDM-1; ZnSO4 100 μM, replicate 1): 56.06% | NDM-1 residual activity % (NDM-1; ZnSO4 100 μM, replicate 2): 59.92% | NDM-1 residual activity % (NDM-1; ZnSO4 100 μM, replicate 3): 88.19% | NDM-1 residual activity % (NDM-1; ZnSO4 200 μM, replicate 1): 61.18% | NDM-1 residual activity % (NDM-1; ZnSO4 200 μM, replicate 2): 100.32% | NDM-1 residual activity % (NDM-1; ZnSO4 200 μM, replicate 3): 93.90% | NDM-1 residual activity % (NDM-1; ZnSO4 400 μM, replicate 1): 95.69% | NDM-1 residual activity % (NDM-1; ZnSO4 400 μM, replicate 2): 105.75% | NDM-1 residual activity % (NDM-1; ZnSO4 400 μM, replicate 3): 98.26% | NDM-1 residual activity % (NDM-1; ZnSO4 800 μM, replicate 1): 94.91% | NDM-1 residual activity % (NDM-1; ZnSO4 800 μM, replicate 2): 111.23% | NDM-1 residual activity % (NDM-1; ZnSO4 800 μM, replicate 3): 106.26%

CCN1CCN(C(=O)N[C@@H](C(=O)N[C@@H]2C(=O)N3[C@@H]2SC(C)(C)[C@@H]3C(=O)O)c2ccccc2)C(=O)C1=O [Piperacillin]
MIC [10]: > 64 µg/mL | susceptibility class (MIC) [10]: R | MIC [11]: > 64 µg/mL | susceptibility class (MIC) [11]: R | MIC (E. coli ATCC25922 [12]): ≤ 4 µg/mL | susceptibility class (MIC) (E. coli ATCC25922 [12]): S | MIC (NDM-1 E. coli XJ141026 [13]): > 64 µg/mL | susceptibility class (MIC) (NDM-1 E. coli XJ141026 [13]): R | MIC (NDM-1 E. coli XJ141015 [14]): > 64 µg/mL | susceptibility class (MIC) (NDM-1 E. coli XJ141015 [14]): R | MIC [15]: > 64 µg/mL | susceptibility class (MIC) [15]: R | MIC (NDM-1 E. coli XJ141047 [16]): > 64 µg/mL | susceptibility class (MIC) (NDM-1 E. coli XJ141047 [16]): R | MIC [17]: > 64 µg/mL | susceptibility class (MIC) [17]: R | MIC (K. pneumoniae ATCC13883 [18]): 8 µg/mL (≈ 15.5 µM) | susceptibility class (MIC) (K. pneumoniae ATCC13883 [18]): S | MIC [1, 19]: > 256 µg/mL | MIC [2, 19]: > 256 µg/mL | MIC (E. coli ATCC25922 [3]; [20]): 2 µg/mL (≈ 3.86 µM) | MIC (NDM-1 E. coli XJ141026 [4]; [19]): > 256 µg/mL | MIC (E. coli ATCC35218; [21]): > 256 µg/mL | MIC (NDM-1 E. coli XJ141015 [5]; [19]): > 256 µg/mL | MIC [6, 19]: > 256 µg/mL | MIC (NDM-1 E. coli XJ141047 [7]; [19]): > 256 µg/mL | MIC [8, 19]: > 256 µg/mL | MIC (K. pneumoniae ATCC13883 [9]; [22]): 8 µg/mL (≈ 15.5 µM)

CC(C)(O/N=C(\C(=O)N[C@@H]1C(=O)N2C(C(=O)[O-])=C(C[n+]3ccccc3)CS[C@H]12)c1csc(N)n1)C(=O)O [Ceftazidime]
MIC [10]: > 16 µg/mL | susceptibility class (MIC) [10]: R | MIC [11]: > 16 µg/mL | susceptibility class (MIC) [11]: R | MIC (E. coli ATCC25922 [12]): ≤ 1 µg/mL | susceptibility class (MIC) (E. coli ATCC25922 [12]): S | MIC (NDM-1 E. coli XJ141026 [13]): > 16 µg/mL | susceptibility class (MIC) (NDM-1 E. coli XJ141026 [13]): R | MIC (NDM-1 E. coli XJ141015 [14]): > 16 µg/mL | susceptibility class (MIC) (NDM-1 E. coli XJ141015 [14]): R | MIC [15]: > 16 µg/mL | susceptibility class (MIC) [15]: R | MIC (NDM-1 E. coli XJ141047 [16]): > 16 µg/mL | susceptibility class (MIC) (NDM-1 E. coli XJ141047 [16]): R | MIC [17]: > 16 µg/mL | susceptibility class (MIC) [17]: R | MIC (K. pneumoniae ATCC13883 [18]): ≤ 1 µg/mL | susceptibility class (MIC) (K. pneumoniae ATCC13883 [18]): S | MIC [1]: > 256 µg/mL | MIC [2]: > 256 µg/mL | MIC (E. coli ATCC25922 [3]; [20]): < 0.125 µg/mL | MIC (NDM-1 E. coli XJ141026 [4]): > 256 µg/mL | MIC (E. coli ATCC35218; [21]): < 0.125 µg/mL | MIC (NDM-1 E. coli XJ141015 [5]): > 256 µg/mL | MIC [6]: > 256 µg/mL | MIC (NDM-1 E. coli XJ141047 [7]): > 256 µg/mL | MIC [8]: > 256 µg/mL | MIC (K. pneumoniae ATCC13883 [9]; [22]): < 0.125 µg/mL
